Experimental data reported in patent US12234248B2, “Co-crystal compounds comprising lithium ions and isonicotinamide” (UNIVERSITY OF LIMERICK, priority 2017, dated 2025).
“And” between values parts separate entries of the source, which are not always exact repeats. Identical values can stand only once.

Experiments:
[1] = Stability of crystalline material under warm humid conditions (40° C., 75% relative humidity), PXRD before and after; format: physicochemical; settings: stored at 40° C., 75% relative humidity; stable = retained crystal form for at least two weeks by PXRD
Description: The stability of these compounds under warm humid conditions was assessed as follows:
The crystalline material was stored at 40° C. in an atmosphere of 75% relative humidity.
Compounds were classed as stable if they retained their crystal form for at least two weeks as verified by examination of PXRD patterns collected before and after exposure to humidity.
It can be seen that the pattern obtained after 2 months at 75% relative humidity and 40° C. (upper trace) in this case is different.

[2] = Bioavailability in vivo in rats: lithium in plasma and brain by ICP-OES after oral administration
Description: Male Sprague-Dawley rats, weighing 240-290 g, were treated through gastric intubation with formulations of lithium and compared with lithium carbonate as a reference. For each formulation a group of 12 rats was treated. 4 mEq/kg of lithium were orally administered, after suspension in 2 mL of corn seeds oil (“Olio Cuore”).
Four intervals' post-administration time (2, 24, 48 and 72 hours) were considered and three rats for each of them, employing the protocol used by Zaworotko and coworkers (Smith et al., Mol. Pharmaceutics 2013, 10, 4728-4738). At each time interval blood samples were collected through intra-cardiac […], these were treated with 50 μL of sodium heparin and centrifuged for 10 min at 1600 rpm. Plasma samples of approximately […] each were thus obtained. The brain was explanted in toto with perfusion with phosphate buffered saline (PBS) in order to preserve it in a viable state. The plasma and brain samples were immediately frozen at a temperature of −80° C., after measuring the weight of the brains.
In order to determine the concentration of the lithium by means of the ICP-OES (Inductively Coupled Plasma Optical Emission Spectometry) analysis, plasma and brain samples were purified and mineralized, respectively to obtain solutions suitable for analysis.
A 0.5 mL aliquot was taken from each sample, to which were added equal amounts of MilliQ water and concentrated nitric acid, in order to bring the lithium ion in solution in the form of LiNO3 and to obtain the precipitation of the proteins. At this point, each sample was sonicated for 10 min in an ultrasonic bath and diluted to a volume of 5.0 mL.
All samples were subjected to centrifugation for a period of 40 min, at a rotational speed of 6000 rpm, to obtain complete plasma proteins/solution separation. At the end supernatant liquid containing lithium was diluted to a final volume of 15 mL by adding MilliQ water. The obtained solutions were stored at a temperature of 4° C. until analysis.
The purpose of this phase was to obtain liquid samples, suitable to ICP-OES analysis, containing lithium in solution, starting from the solid organic tissue of the brain. The mineralization process allows the complete degradation of organic substances until the total transformation into simple inorganic substances.
The first operation performed was that the drying of the fabric, obtained through the use of a digester open PerkinElmer SPB 100-12: each sample of brain has been inserted in special containers Digitube™ 100 mL and maintained at a temperature of 80° C. for 120 min.
The second step involved the mineralization true and proper brain: each sample were added to 10 mL of concentrated nitric acid and 1.0 mL of hydrogen peroxide, then the system was brought to a temperature of 120° C. for 120 min. until the complete mineralization. With this procedure you get the desired biological degradation of organic compounds and the consequent passage of lithium in solution. The solutions thus obtained were collected, brought to a final volume of 20 mL with MilliQ water and preserved at a temperature of 4° C. until time of analysis.
In order to obtain the determination of lithium ion concentrations in the samples previously prepared, optical emission spectrometry inductively coupled plasma ICP-OES was used (PerkinElmer Optima 8000 spectrometer).
The analysis was conducted at the fixed wavelength of lithium (λ=670.784 nm) and the intensity of the radiation emitted by each sample was measured and compared standard solutions.
Plasma and brain concentration data were processed using a non-compartmental approach using WinNonlin® software (Pharsight Corporation, USA) and Microsoft Excel XP (Microsoft Corporation, […]).

[3] = rat brain, 4 mEq/kg lithium oral, non-compartmental
[4] = rat plasma, 4 mEq/kg lithium oral, non-compartmental

Stable? [1]	AUC (Cerebral)/AUC (Plasma) ([2]; rat, in vivo)	AUC(0-t) ([2]; rat, in vivo, po)	AUClast (brain) ([2]; rat, in vivo, po)	Cmax (brain) ([2]; rat, in vivo, po)	Cmax (plasma) ([2]; rat, in vivo, po)	Relative Brain BA (UL crystal forms, oral vs Li2CO3, oral) ([2]; rat, in vivo, po)	Relative Plasma BA (UL crystal forms, oral vs Li2CO3 oral) ([2]; rat, in vivo, po)	Tmax (brain) ([2]; rat, in vivo, po)	Tmax (plasma) ([2]; rat, in vivo, po)	t½_Lambda_z (brain) ([2]; rat, in vivo, po)	t½_Lambda_z (plasma) ([2]; rat, in vivo, po)	Compound	other results
Yes	1.208	147 µg·h/mL	0.177 mg·h/g	4.0200 µg/g	3976.7 ng/mL	76.37%	54.52%	24 h	24 h	16.7775 h	14.0638 h	NC(=O)c1ccncc1.NC(=O)c1ccncc1.O=C([O-])/C=C/C(=O)[O-].[Li+].[Li+] [Compound 2, [Li2(fumarate)(isonicotinamide)2]n]	–
Yes	1.077	197 µg·h/mL	211.7400 mg·h/g	5.1533 µg/g	4140 ng/mL	91.11%	72.96%	48 h	24 h	7.7957 h	15.0424 h	NC(=O)c1ccncc1.NC(=O)c1ccncc1.O=C([O-])CCC(=O)[O-].[Li+].[Li+] [Compound 7, [Li2(succinate) (isonicotinamide)2]n]	–

Compound	Stable? [1]	AUC (Cerebral)/AUC (Plasma) ([2]; rat, in vivo)	AUC(0-t) ([2]; rat, in vivo, po)	AUClast (brain) ([2]; rat, in vivo, po)	Cmax (brain) ([2]; rat, in vivo, po)	Cmax (plasma) ([2]; rat, in vivo, po)	Relative Brain BA (UL crystal forms, oral vs Li2CO3, oral) ([2]; rat, in vivo, po)	Relative Plasma BA (UL crystal forms, oral vs Li2CO3 oral) ([2]; rat, in vivo, po)	Tmax (brain) ([2]; rat, in vivo, po)	Tmax (plasma) ([2]; rat, in vivo, po)	t½_Lambda_z (brain) ([2]; rat, in vivo, po)	t½_Lambda_z (plasma) ([2]; rat, in vivo, po)	other results
COc1ccc(C(=O)[O-])cc1.O=C(O)[C@@H]1CCCN1.[Li+] [Compound 5, [Li(4-methoxybenzoate)(L-proline)]n]	Yes	–	–	–	–	–	–	–	–	–	–	–	Cmax (brain) [2, 3]: 4.9833 µg/g; Tmax (brain) [2, 3]: 48 h; t½_Lambda_z (brain) ([2]; rat brain, 4 mEq/kg lithium oral, terminal phase): 13.4751 h; AUClast (brain) ([2]; rat brain, 4 mEq/kg lithium oral, time 0 to last quantifiable point): 229.3867 mg·h/g; concentration of lithium in the brain compared with lithium carbonate ([2]; rat brain, after 48 hours, FIG. 12): higher; Relative Brain BA (UL crystal forms, oral vs Li2CO3, oral) ([2]; rat brain, relative to lithium carbonate): 98.70%; Cmax (plasma) [2, 4]: 6080 ng/mL; Tmax (plasma) [2, 4]: 24 h; t½_Lambda_z (plasma) ([2]; rat plasma, 4 mEq/kg lithium oral, terminal phase): 16.5057 h; Relative Plasma BA (UL crystal forms, oral vs Li2CO3 oral) ([2]; rat plasma, relative to lithium carbonate): 90.41%; BRAIN CONC., Time(h) 2.00 ([2]; rat, 4 mEq/kg lithium oral, 2 h, lithium in brain, individual rats (three per time)): 0.23 µg/g and 0.48 µg/g and 0.46 µg/g; PLASMA CONC, Time(h) 2.00 ([2]; rat, 4 mEq/kg lithium oral, 2 h, lithium in plasma, individual rats (three per time)): 2820 ng/mL and 4020 ng/mL and 2650 ng/mL; BRAIN CONC., Time(h) 24.00 ([2]; rat, 4 mEq/kg lithium oral, 24 h, lithium in brain, individual rats (three per time)): 4.44 µg/g and 4.46 µg/g and 2.54 µg/g; PLASMA CONC, Time(h) 24.00 ([2]; rat, 4 mEq/kg lithium oral, 24 h, lithium in plasma, individual rats (three per time)): 7150 ng/mL and 6800 ng/mL and 4290 ng/mL; BRAIN CONC., Time(h) 48.00 ([2]; rat, 4 mEq/kg lithium oral, 48 h, lithium in brain, individual rats (three per time)): 4.42 µg/g and 4.76 µg/g and 5.77 µg/g; PLASMA CONC, Time(h) 48.00 ([2]; rat, 4 mEq/kg lithium oral, 48 h, lithium in plasma, individual rats (three per time)): 1450 ng/mL and 1910 ng/mL and 3650 ng/mL; BRAIN CONC., Time(h) 72.00 ([2]; rat, 4 mEq/kg lithium oral, 72 h, lithium in brain, individual rats (three per time)): 1.08 µg/g and 0.43 µg/g and 2.84 µg/g; PLASMA CONC, Time(h) 72.00 ([2]; rat, 4 mEq/kg lithium oral, 72 h, lithium in plasma, individual rats (three per time)): 630 ng/mL and 480 ng/mL and 1320 ng/mL
